Assay results as given in US20040167028A1, “Method of introducing a substance into plant tissue” (HAMAMATSU PHOTONICS K.K., priority 2002, published 2004).
Like-named read-outs stand apart in the source and are kept apart here.

Tested on: tomato plant
Description: According to the method of the invention, information relating to the amount, speed and site of introduction of the substance introduced into the plant tissue can be obtained, for example, using a positron imaging apparatus. With a positron imaging apparatus, information on the measuring target is obtained by introducing a substance labeled with positron-emitting RI as a tracer into a living body, and measuring the pair of gamma-rays produced as the positrons emitted from the RI-labeled substance are annihilated against electrons in the substance (see, for example, Japanese Patent Application Laid-Open No. 9-33658).
FIG. 5 is a view showing the basic construction of a positron imaging apparatus. The apparatus shown in this drawing comprises a pair of two-dimensional radiation detectors 60 and 70. The two-dimensional radiation detectors 60 and 70 in turn comprise scintillator arrays 61,71 each composed of a plurality of scintillators, and photodetectors 62,72 for detection of scintillation light generated by incidence of the gamma-rays on the scintillator arrays 61,71. The radiation detectors 60,70 are housed in separate detector cases 65,75 with the radiation incidence planes of the scintillator arrays 61,71 facing each other.
In this construction, a pair of gamma-rays emitted from a measuring target B (a plant, according to the invention) placed on a prescribed measuring surface S between the radiation detectors 60,70 are each detected by the radiation detectors 60,70. The detection signals are outputted through connected circuit systems 63,73 having amplifier circuits, etc. for amplification of the detection signals. The outputted amplification signals are inputted into a signal processing circuit 80, and the signal processing circuit 80 identifies coincident electron/positron annihilation events and calculates the position of the annihilation, based on the detection signals from the two radiation detectors 60,70.
Tomato (Merryroad variety) approximately 4 weeks after sprouting was used as the test plant. After removing a leaf at the end of the 6th side branch from the bottom of the main stem, the end was cut in the water for use as the absorption site (conductive tissue-exposed side branch) FIG. 6 is a schematic view showing the arrangement of the main stem 3 and side branches 2 of the tomato plant used in this experiment. The absorption site was located at the end of the side branch 2 extending toward the left in FIG. 6.
FIG. 7 is an integrated image obtained from the positron imaging apparatus, with the integrated image positioned to correspond to the positions of the main stem and side branch in FIG. 6.
Next, all of the leaves on the substance-absorbed side branch 2 of the tomato plant used in Comparative Example 1 were removed. […] FIG. 8 is the integrated image obtained from the positron imaging apparatus, with the integrated image positioned to correspond to the positions of the, main stem and side branch in FIG. 6.
Using a different tomato plant from that used in Example 1 (the same variety but a different plant), a leaf at the end of the 6th side branch from the bottom of the main stem was removed in the same manner as Example 1, and the end was cut in the water for use as the absorption site in the same manner as Comparative Example 1. The other leaves on that side branch were shaded by covering them with aluminum foil to inhibit transpiration. FIG. 10 is a schematic view showing the arrangement of the main stem 3 and side branches 2 of the tomato plant used in this experiment. The absorption site was located at the end of the upper side branch 2 of the side branches 2 extending toward the left in FIG. 10.

SMILES: O=[N+]([O-])O [^13N-labeled nitric acid]
- migration of the substance in the main stem (integrated image) (Comparative Example 1, side branch with leaves, no inhibition of transpiration, FIG. 7): almost all of the substance migrated downward in the main stem
- introduction of the substance into the side branch (integrated image) (Comparative Example 2, leaves unshaded, no inhibition of transpiration, FIG. 12): very little of the substance had been introduced
- amount of substance introduction (RI accumulation / nitric acid absorption at the node) (Example 1, all leaves of the absorbing side branch removed, versus Comparative Example 1 with leaves, observed for 1 hour, FIG. 9): over twice
- migration of the substance in the main stem (integrated image) (Example 1, leaves of the side branch removed, FIG. 8): Upward migration was also confirmed in the main stem
- amount of substance introduction (RI accumulation at the node) (Example 2, leaves of the absorbing side branch shaded with aluminum foil, versus Comparative Example 2 unshaded, FIG. 13): over twice
- migration of the substance in the main stem (integrated image) (Example 2, leaves shaded to inhibit transpiration, FIG. 11): upward migration occurred in the main stem
- introduction of the substance into the plant (integrated image) (Example 4, sieve tubes of the side branch eliminated by heating at about 100° C., vessels alone, FIG. 16): the substance had been introduced into the plant
